Earlier results on 1 compound are cited in patent CN103893129A, “帕潘立酮缓释微球及其注射剂和该缓释微球的制备方法” (CHONGQING DAXIN PHARMACEUTICALS Co Ltd OF PKU INTERNATIONAL …, priority 2012, dated 2014).

The test system of this data set is schizophrenia (精神分裂症).

Regarding `Cc1nc2n(c(=O)c1CCN1CCC(c3noc4cc(F)ccc34)CC1)CCCC2O` (centres unmarked) [帕潘立酮, 6,7,8,9-四氢-3-(2-(4-(6-氟-1,2-苯并异唑-3-基)-1-哌啶基)乙基)-9-羟基-2-甲基-4H-吡啶并[2,1-a]嘧啶-4-酮], the “efficacy on positive and negative symptoms of schizophrenia” value (clinical) is listed as “对精神分裂症阳性症状和阴性症状均有疗效”. In addition, the “relapse rate of schizophrenia” value (patients) is “可有效延迟精神分裂症的复发率”.
